Source: ChEMBL document CHEMBL1909046, “DrugMatrix in vitro pharmacology data”

Tests used:
[1] = DRUGMATRIX: beta-Lactamase enzyme inhibition (substrate: Nitrocefin); set-up: species or system Bacillus cereus; details: Not Active = under 50% inhibition at 10 µM
Cannabinoid receptor 1 = Cannabinoid receptor 1 (Homo sapiens, UniProt P21554); type: cell membranes, Membrane; details: chem-1; further: in other assays of this panel Not Active means under 50% inhibition at 10 µM
[2] = DRUGMATRIX: Glutamate, Kainate radioligand binding (ligand: [3H] Kainic acid); type: cell membranes, Rattus norvegicus, Wistar, Brain, Membrane; details: Not Active = under 50% inhibition at 10 µM
[3] = DRUGMATRIX: Phosphodiesterase PDE3 enzyme inhibition (substrate: [3H]cAMP + cAMP); type: tissue-based, Homo sapiens; details: platelet; Not Active = under 50% inhibition at 10 µM
Calcitonin receptor = biological target: T1, Calcitonin receptor (Homo sapiens, UniProt P30988); type: cell membranes, Membrane; details: t47d; further: in other assays of this panel Not Active means under 50% inhibition at 10 µM
T1 sequence (P30988 whole entry): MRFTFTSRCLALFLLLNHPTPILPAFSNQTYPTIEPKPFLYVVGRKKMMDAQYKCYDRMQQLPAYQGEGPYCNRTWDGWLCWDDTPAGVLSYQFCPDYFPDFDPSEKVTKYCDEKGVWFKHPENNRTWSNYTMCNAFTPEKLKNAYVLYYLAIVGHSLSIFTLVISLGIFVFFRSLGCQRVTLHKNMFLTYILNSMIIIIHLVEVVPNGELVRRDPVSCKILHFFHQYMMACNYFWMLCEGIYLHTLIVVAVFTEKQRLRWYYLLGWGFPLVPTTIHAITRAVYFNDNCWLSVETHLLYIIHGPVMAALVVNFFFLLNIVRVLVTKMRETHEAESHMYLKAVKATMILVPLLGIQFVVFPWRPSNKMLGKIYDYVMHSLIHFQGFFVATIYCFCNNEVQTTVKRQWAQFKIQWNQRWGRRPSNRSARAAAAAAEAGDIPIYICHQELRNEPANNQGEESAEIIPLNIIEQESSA

[4] = biological target: T2, C-X-C chemokine receptor type 1 (Homo sapiens, UniProt P25024); further: in other assays of this panel Not Active means under 50% inhibition at 10 µM
T2 sequence (P25024 whole entry): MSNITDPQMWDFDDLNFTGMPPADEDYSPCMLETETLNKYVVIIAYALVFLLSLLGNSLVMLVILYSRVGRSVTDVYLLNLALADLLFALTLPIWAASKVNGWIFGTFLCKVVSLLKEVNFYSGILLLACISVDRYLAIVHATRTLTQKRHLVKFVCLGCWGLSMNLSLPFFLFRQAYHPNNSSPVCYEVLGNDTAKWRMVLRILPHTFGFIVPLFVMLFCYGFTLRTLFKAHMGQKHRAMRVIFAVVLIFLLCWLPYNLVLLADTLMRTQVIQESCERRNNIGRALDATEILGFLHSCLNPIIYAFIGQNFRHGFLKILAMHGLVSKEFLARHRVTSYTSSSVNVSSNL

Interstitial collagenase = biological target: T3, Interstitial collagenase (Homo sapiens, UniProt P03956); type: tissue-based, Rheumatoid synovial fibroblasts;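 further: MMP-1 enzyme inhibition assay using a peptide substrate; in other assays of this panel Not Active means under 50% inhibition at 10 µM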
T3 sequence (P03956 whole entry): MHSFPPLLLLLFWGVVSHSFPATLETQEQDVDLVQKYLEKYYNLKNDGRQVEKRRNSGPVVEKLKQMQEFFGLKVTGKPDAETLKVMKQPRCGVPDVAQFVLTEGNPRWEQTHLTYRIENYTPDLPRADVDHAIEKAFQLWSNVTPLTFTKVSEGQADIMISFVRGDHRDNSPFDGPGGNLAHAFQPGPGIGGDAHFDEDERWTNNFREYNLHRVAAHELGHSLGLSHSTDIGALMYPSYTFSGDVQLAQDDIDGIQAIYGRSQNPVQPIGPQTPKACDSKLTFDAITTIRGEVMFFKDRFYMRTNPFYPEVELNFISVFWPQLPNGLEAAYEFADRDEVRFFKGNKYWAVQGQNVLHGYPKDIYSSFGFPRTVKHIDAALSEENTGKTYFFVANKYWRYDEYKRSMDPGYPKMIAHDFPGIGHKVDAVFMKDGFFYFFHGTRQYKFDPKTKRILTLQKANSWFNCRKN

Estrogen receptor = biological target: T4, Estrogen receptor (Homo sapiens, UniProt P03372); details: sf9; further: in other assays of this panel Not Active means under 50% inhibition at 10 µM
T4 sequence (P03372 whole entry): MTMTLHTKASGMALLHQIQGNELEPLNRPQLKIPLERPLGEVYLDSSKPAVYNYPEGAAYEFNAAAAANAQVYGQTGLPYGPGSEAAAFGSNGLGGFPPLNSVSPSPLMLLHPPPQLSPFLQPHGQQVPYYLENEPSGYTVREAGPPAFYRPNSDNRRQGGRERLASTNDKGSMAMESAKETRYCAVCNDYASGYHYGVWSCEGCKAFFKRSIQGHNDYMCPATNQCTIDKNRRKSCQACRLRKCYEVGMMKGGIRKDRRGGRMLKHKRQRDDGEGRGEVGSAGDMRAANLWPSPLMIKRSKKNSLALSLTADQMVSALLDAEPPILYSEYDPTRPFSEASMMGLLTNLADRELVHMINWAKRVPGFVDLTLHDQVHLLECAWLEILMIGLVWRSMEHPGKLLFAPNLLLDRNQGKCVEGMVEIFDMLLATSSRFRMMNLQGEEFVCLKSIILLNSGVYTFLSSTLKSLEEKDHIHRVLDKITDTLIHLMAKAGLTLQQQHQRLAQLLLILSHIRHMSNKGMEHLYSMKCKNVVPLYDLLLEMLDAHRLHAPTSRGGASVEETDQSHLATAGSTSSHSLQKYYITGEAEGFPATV

Chain of Cannabinoid receptor 1 (P21554 whole entry): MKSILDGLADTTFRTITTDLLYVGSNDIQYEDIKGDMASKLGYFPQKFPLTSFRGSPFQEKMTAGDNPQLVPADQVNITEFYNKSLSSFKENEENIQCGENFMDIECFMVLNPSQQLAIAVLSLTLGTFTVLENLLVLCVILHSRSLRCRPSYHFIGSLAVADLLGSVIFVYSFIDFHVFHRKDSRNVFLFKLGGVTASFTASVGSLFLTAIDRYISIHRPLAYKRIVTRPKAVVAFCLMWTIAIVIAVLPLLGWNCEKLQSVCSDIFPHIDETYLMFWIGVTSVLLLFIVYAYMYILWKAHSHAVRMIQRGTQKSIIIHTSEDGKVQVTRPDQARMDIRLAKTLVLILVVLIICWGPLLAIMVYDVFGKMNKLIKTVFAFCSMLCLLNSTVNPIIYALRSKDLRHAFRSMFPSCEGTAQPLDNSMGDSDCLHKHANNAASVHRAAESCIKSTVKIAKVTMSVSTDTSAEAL

CC[C@H](C)C(=O)O[C@H]1C[C@H](O)C=C2C=C[C@H](C)[C@H](CC[C@@H](O)C[C@@H](O)CC(=O)O)[C@H]21 [PRAVASTATIN]
Not Active: IC50 [1] | Ki [1] | IC50 (Cannabinoid receptor 1) | IC50 [2] | Ki [2] | IC50 [3] | Ki [3] | IC50 (Calcitonin receptor) | IC50 [4] | IC50 (Interstitial collagenase) | IC50 (Estrogen receptor)

COBALT(II) ACETYLACETONATE
Not Active: IC50 [1] | Ki [1] | IC50 (Cannabinoid receptor 1) | Ki (Cannabinoid receptor 1) | IC50 [2] | Ki [2] | IC50 [3] | Ki [3] | IC50 (Calcitonin receptor) | Ki (Calcitonin receptor) | IC50 [4] | Ki [4] | IC50 (Interstitial collagenase) | Ki (Interstitial collagenase) | IC50 (Estrogen receptor) | Ki (Estrogen receptor)

INSULIN HUMAN
Not Active: IC50 [1] | Ki [1] | IC50 (Cannabinoid receptor 1) | Ki (Cannabinoid receptor 1) | IC50 [2] | Ki [2] | IC50 [3] | Ki [3] | IC50 (Calcitonin receptor) | Ki (Calcitonin receptor) | IC50 [4] | Ki [4] | IC50 (Interstitial collagenase) | Ki (Interstitial collagenase) | IC50 (Estrogen receptor) | Ki (Estrogen receptor)

POLYVINYL ALCOHOL
Not Active: IC50 [1] | Ki [1] | IC50 (Cannabinoid receptor 1) | Ki (Cannabinoid receptor 1) | IC50 [2] | Ki [2] | IC50 [3] | Ki [3] | IC50 (Calcitonin receptor) | Ki (Calcitonin receptor) | IC50 [4] | Ki [4] | IC50 (Interstitial collagenase) | Ki (Interstitial collagenase) | IC50 (Estrogen receptor) | Ki (Estrogen receptor)
